Data from patent publication US20230218666A1, “ANTIMICROBIAL COMBINATIONS” (MARVELBIOTICS LIMITED, priority 2020, published 2023).
Several values for one entry are separate records, joined by “and”; a condition that tells them apart may be missing. Identical values can stand only once.

What was measured:
Lactobacillus plantarum [1] = assay: Phase 2b: survival of Lactobacillus plantarum after 24 hours contact at a range of concentrations; settings: for Minimum concentration at which growth was observed (%): single agent, n = 3; for Growth observed after recovering viable Lactobacillus plantarum: 24 hours, replicates 1.1-3.2
Experimental: Twenty-four-hour cultures of L. plantarum were harvested from MRSA and used to prepare a 1×10^8±5×10^7 CFUmL^−1 suspension in MRSB. The starting inoculum was confirmed by serial dilution and plating out the resultant suspensions. […] Each test agent was diluted 1:2 a total of eight times. A 50 μL aliquot of each test agent dilution was added to the wells of a 96-well plate. A 50 μL aliquot of L. plantarum inoculum was added to the test agent and pipette mixed. The 96-well plates were incubated for 24 hours at 37° C.±2° C. and 5% CO2. Following incubation, 100 μL of DE-N was added to each well and pipette mixed. A 10 μL aliquot of each neutralised suspension was taken from each well and spot-plated onto MRSA. The plates were incubated for 24 hours at 37° C.±2° C. and 5% CO2. Following incubation, the presence or absence of growth on the plates was recorded. Testing was performed in triplicate.

Lactobacillus plantarum [2] = assay: Phase 2c: survival of Lactobacillus plantarum after 30 minutes, 4 hours and 24 hours contact; type: cell-based; settings: for Minimum concentration at which growth was observed (%): single agent, n = 3; for Growth observed after recovering viable Lactobacillus plantarum: replicates 1.1-3.2
Experimental: Three concentrations of each test agent were prepared following the results of Phase 2b. […] Testing was performed in triplicate.

Lactobacillus plantarum [3] = assay: Phase 2a: survival of Lactobacillus plantarum after 24 hours contact at stock concentrations
Experimental: Twenty-four-hour cultures of L. plantarum were harvested from MRSA and used to prepare a 1×10^8±5×10^7 CFUmL^−1 suspension in MRSB. The starting inoculum was confirmed by serial dilution and plating out the resultant suspensions. […] A 50 μL aliquot of each test agent was added to the wells of a 96-well plate. A 50 μL aliquot of L. plantarum inoculum was then added to the test agent and pipette mixed. The 96-well plates were incubated for 24 hours at 37° C.±2° C. and 5% CO2. Following incubation, 100 μL of DE-N was added to each well and pipette mixed. A 10 μL aliquot of each neutralised suspension was taken from each well and spot-plated onto MRSA. The plates were incubated for 24 hours at 37° C.±2° C. and 5% CO2. Following incubation, the presence or absence of growth on the plates was recorded. Testing was performed in triplicate.

Substance: Copper gluconate
- Minimum concentration at which growth was observed (%) (Lactobacillus plantarum [1]; 24 hours contact time): 0.255%
- Growth observed after recovering viable Lactobacillus plantarum (Lactobacillus plantarum [1]; concentration 0.064 %): +
- Growth observed after recovering viable Lactobacillus plantarum (Lactobacillus plantarum [1]; concentration 0.128 %): +
- Growth observed after recovering viable Lactobacillus plantarum (Lactobacillus plantarum [1]; concentration 0.255 %): +
- Growth observed after recovering viable Lactobacillus plantarum (Lactobacillus plantarum [1]; concentration 0.510 %): −
- Growth observed after recovering viable Lactobacillus plantarum (Lactobacillus plantarum [1]; concentration 1.021 %): −
- Growth observed after recovering viable Lactobacillus plantarum (Lactobacillus plantarum [1]; concentration 2.042 %): −
- Growth observed after recovering viable Lactobacillus plantarum (Lactobacillus plantarum [1]; concentration 4.084 %): −
- Growth observed after recovering viable Lactobacillus plantarum (Lactobacillus plantarum [1]; concentration 8.167 %): −
- concentration at which consistent growth was observed across all replicates (Lactobacillus plantarum [2]; 30 minutes contact time): ≤ 4.083%
- Minimum concentration at which growth was observed (%) (Lactobacillus plantarum [2]; 30 minutes contact time): 8.167%
- Minimum concentration at which growth was observed (%) (Lactobacillus plantarum [2]; 4 hours contact time): 0.510%
- Minimum concentration at which growth was observed (%) (Lactobacillus plantarum [2]; 24 hours contact time): 0.255%
- Growth observed after recovering viable Lactobacillus plantarum (Lactobacillus plantarum [2]; concentration 0.128 %, 24 hours): +
- Growth observed after recovering viable Lactobacillus plantarum (Lactobacillus plantarum [2]; concentration 0.255 %, 4 hours): +
- Growth observed after recovering viable Lactobacillus plantarum (Lactobacillus plantarum [2]; concentration 0.255 %, 24 hours): +
- Growth observed after recovering viable Lactobacillus plantarum (Lactobacillus plantarum [2]; concentration 0.510 %, 4 hours): +
- Growth observed after recovering viable Lactobacillus plantarum (Lactobacillus plantarum [2]; concentration 0.510 %, 24 hours): −
- Growth observed after recovering viable Lactobacillus plantarum (Lactobacillus plantarum [2]; concentration 0.510 %, 24 hours, listed as copper gluconate): unable to survive
- Growth observed after recovering viable Lactobacillus plantarum (Lactobacillus plantarum [2]; concentration 1.021 %, 4 hours): −
- Growth observed after recovering viable Lactobacillus plantarum (Lactobacillus plantarum [2]; concentration 1.021 %, 4 hours, listed as copper gluconate): unable to survive
- Growth observed after recovering viable Lactobacillus plantarum (Lactobacillus plantarum [2]; concentration 2.042 %, 30 minutes): +
- Growth observed after recovering viable Lactobacillus plantarum (Lactobacillus plantarum [2]; concentration 4.084 %, 30 minutes): +
- Growth observed after recovering viable Lactobacillus plantarum (Lactobacillus plantarum [2]; concentration 8.167 %, 30 minutes): − (4×) and + (2×)
- Growth observed after recovering viable Lactobacillus plantarum (Lactobacillus plantarum [2]; concentration 8.167 %, 30 minutes, listed as copper gluconate): Growth was observed in two of three replicates
- Growth (Lactobacillus plantarum [3]; stock concentration 8.167 %, n = 3): No
- Growth (Lactobacillus plantarum [3]; stock concentration 8.167 %, n = 3, listed as copper gluconate): No growth of L. plantarum was observed

Substance: Zinc gluconate
- Growth of L. plantarum (Lactobacillus plantarum [1]; 24 hours contact time, at all concentrations tested (Table 6)): Growth was observed
- Minimum concentration at which growth was observed (%) (Lactobacillus plantarum [1]; 24 hours contact time): 6.326%
- Growth observed after recovering viable Lactobacillus plantarum (Lactobacillus plantarum [1]; concentration 0.049 %): +
- Growth observed after recovering viable Lactobacillus plantarum (Lactobacillus plantarum [1]; concentration 0.099 %): +
- Growth observed after recovering viable Lactobacillus plantarum (Lactobacillus plantarum [1]; concentration 0.198 %): +
- Growth observed after recovering viable Lactobacillus plantarum (Lactobacillus plantarum [1]; concentration 0.395 %): +
- Growth observed after recovering viable Lactobacillus plantarum (Lactobacillus plantarum [1]; concentration 0.791 %): +
- Growth observed after recovering viable Lactobacillus plantarum (Lactobacillus plantarum [1]; concentration 1.582 %): +
- Growth observed after recovering viable Lactobacillus plantarum (Lactobacillus plantarum [1]; concentration 3.163 %): +
- Growth observed after recovering viable Lactobacillus plantarum (Lactobacillus plantarum [1]; concentration 6.326 %): +
- Minimum concentration at which growth was observed (%) (Lactobacillus plantarum [2]; 30 minutes contact time): 6.326%
- Minimum concentration at which growth was observed (%) (Lactobacillus plantarum [2]; 30 minutes contact time, listed as zinc gluconate): ≤ 6.326%
- Minimum concentration at which growth was observed (%) (Lactobacillus plantarum [2]; 4 hours contact time): 6.326%
- Minimum concentration at which growth was observed (%) (Lactobacillus plantarum [2]; 4 hours contact time, listed as zinc gluconate): ≤ 6.326%
- Minimum concentration at which growth was observed (%) (Lactobacillus plantarum [2]; 24 hours contact time): 6.326%
- Minimum concentration at which growth was observed (%) (Lactobacillus plantarum [2]; 24 hours contact time, listed as zinc gluconate): ≤ 6.326%
- Growth observed after recovering viable Lactobacillus plantarum (Lactobacillus plantarum [2]; concentration 1.5815 %, 30 minutes): +
- Growth observed after recovering viable Lactobacillus plantarum (Lactobacillus plantarum [2]; concentration 1.5815 %, 4 hours): +
- Growth observed after recovering viable Lactobacillus plantarum (Lactobacillus plantarum [2]; concentration 1.5815 %, 24 hours): +
- Growth observed after recovering viable Lactobacillus plantarum (Lactobacillus plantarum [2]; concentration 3.163 %, 30 minutes): +
- Growth observed after recovering viable Lactobacillus plantarum (Lactobacillus plantarum [2]; concentration 3.163 %, 4 hours): +
- Growth observed after recovering viable Lactobacillus plantarum (Lactobacillus plantarum [2]; concentration 3.163 %, 24 hours): +
- Growth observed after recovering viable Lactobacillus plantarum (Lactobacillus plantarum [2]; concentration 6.326 %, 30 minutes): +
- Growth observed after recovering viable Lactobacillus plantarum (Lactobacillus plantarum [2]; concentration 6.326 %, 4 hours): +
- Growth observed after recovering viable Lactobacillus plantarum (Lactobacillus plantarum [2]; concentration 6.326 %, 24 hours): +
- Growth (Lactobacillus plantarum [3]; stock concentration 6.326 %, n = 3): Yes
- Growth (Lactobacillus plantarum [3]; stock concentration 6.326 %, n = 3, listed as zinc gluconate): Growth of L. plantarum was observed
